Consider three compounds from patent US20060029548A1, “Methods of diagnosing, monitoring and treating pulmonary diseases” (priority 2004, published 2006).

Molecules are shown by their SMILES. Several values for one entry are separate records, joined by “and”; a condition that tells them apart may be missing. Equal values may be shown once.

Common to all, as to assay type: in vivo
The subject of assay [1] is human subjects (cough, throat irritation, sputum). The experiment in a line: Symptoms other than dyspnoea recorded after inhalation challenge. Conditions: all subjects. The source says:
(§1) The clinical study described in Examples 2-4 was randomized, double blind, crossover, and controlled. Each subject attended the laboratory on three occasions. Procedures on the initial screening visit included obtaining information about the study and a number of investigations in the following order: medical history, lung function, reversibility and skin prick testing. At visit 2 and 3, separated by 2-7 days, the subjects were subjected to either an ATP or AMP challenge in a randomized fashion such that, by the end of the study, each patient had been tested with both compounds. Before, immediately after, and 30 minutes after the challenge, lung function and Borg score for dyspnoea were determined, and symptoms other than dyspnoea were recorded.
(§2) For the tests described in Examples 2-4, ATP and AMP (Sigma, Gillingham, Dorset, England) were dissolved freshly in normal saline solution to produce a range of doubling concentrations from 0.227-929 umol/ml for ATP and from 0.138-1152 umol/ml for AMP and immediately used for bronchial challenge. The solutions were administered using a breath-activated dosimeter (Mefar, Bovezzo, Italy) with an output of 10 ul per inhalation [Prieto et al. (2003) Chest 123:993-997]. The subjects, while wearing a nose clip, inhaled (via a mouthpiece) five breaths of normal saline, followed by sequential doubling concentrations of either ATP or AMP from functional residual capacity to total lung capacity. FEV1 was measured from two minutes after the fifth inhalation of normal saline until there was a fall in FEV1 of ≧20% of its value recorded after saline inhalation or until maximal concentration of either ATP or AMP was inhaled. The provocative dose causing a 20% decrease in FEV1 (PD20) was calculated by interpolation of the logarithmic dose response curve.

Assay [2] concerns human subjects (airway responsiveness, FEV1). The experiment in a line: Inhalation challenge test: airway responsiveness measured as change in FEV1 (PD20). Conditions: for PD20 geometric mean: non-responders excluded; for PD20: individual subjects.
Description: as §1
In the clinical study described in Examples 2-4, spirometric tests were performed using a dry spirometer (Vitalograph Ltd., Buckingham, England) and the best value of the three expiratory manoeuvers was expressed as liters and percentage of the predicted.
as §2
All data from the analyses described in Examples 2-4 were performed with a software package (GraphPad Prism Software, Inc., USA). The significance of differences among groups was assessed by Student's t-test, and analysis of categorical variables was examined by Chi-square test. Pearson's correlation coefficient and linear regression analysis were used to analyze the relationship between the percentage decreases in FEV1 and Borg score. The PD20 values for ATP and AMP were logarithmically transformed to normalize their distribution and presented as geometric means. All other numerical variables were expressed as the mean±SEM and significance was defined as p<0.05.

For assay [3], the system named is human subjects (perception of dyspnoea). The experiment in a line: Borg score for dyspnoea before and after inhalation challenge. Also on record: key to ΔBorg (change in Borg score before and after challenge): Borg score after minus before challenge; 0–10 scale.
Description: as §1
The modified Borg scale used to quantitate dyspnoea in the clinical study described in Examples 2-4 was a category scale in which words describing degrees of breathlessness were anchored to numbers between 0 and 10. The subjects were asked to select a number whose corresponding words most appropriately described their perception of breathlessness. The change in dyspnoea was expressed as ΔBorg, which was the difference in Borg score before and after the challenge [Rutgers et al. (2000) Eur. Respir. J. 16:486-490; Burdon et al. (1982) Am. Rev. Respir. Dis. 126:825-828]. Terms and associated numbers used in assessing Borg score were as follows: 0, “nothing at all”; 0.5, “very, very slight”; 1, “very slight”; 2, “slight”; 3, “moderate”; 4, “somewhat severe”; 5, “severe”; 7, “very severe”; 9, “very, very severe (almost maximal)”; and 10, “maximal” [Burdon et al. (1982)].
as §2

Another assay concerns vagal C fiber. The experiment in a line: Vagal activation experiments in dogs: action potentials in vagal C fibers. Conditions: anesthetized dog, rapid bolus; simultaneous recording with RAR-containing fiber. The protocol: (§3) The experiments described in Example 5 were performed essentially as described in Pelleg et al. [(1996) J. Physiol. 490(1):265-275] and U.S. Pat. No. 5,874,420, both of which are incorporated herein by reference in their entirety. In brief, they were performed on anesthetized (sodium pentobarbitone, 30 mg kg^−1 plus 3 mg kg^−1 h^−1, intravenous) dogs artificially ventilated with room air using a respirator. Arterial blood pH, PO2, PCO2, body temperature were maintained as described in U.S. Pat. No. 5,874,420. A peripheral vein was cannulated for the administration of physiological saline solution and maintenance doses of anesthetic. Catheters were introduced via the femoral vein and left atrial appendage and positioned in the right atrium and left atrium for the administration of test solutions. The chest was opened by a longitudinal sternotomy. The right cervical vagosympathetic trunk was exposed by a midcervical longitudinal section of the skin and careful dissection of neck muscles and connective tissues. The edges of the cut skin were elevated and secured to create a trough which was filled with warm (about 37° C.) mineral oil. A section of the vagosympathetic trunk was placed on a small plate of black Perspex™ and fine branches were separated from the main bundle by careful dissection using microsurgical tools and a dissecting microscope (Model F212, Jenopik Jena, GmbH, Germany).
Extracellular neural action potentials were recorded using a custom-made bipolar electrode that contained two platinum-iridium wires (1.25 cm×0.0125 cm) connected to a high-impedence first-stage differential amplifier (model AC8331, CW, Inc., Ardmore, Pa.) via a shielded cable. The output of the first-stage amplifier was fed into a second-stage differential amplifier (model BMA-831/C, CWE, Inc.). Isolated fibers were laid on the pair of platinum-iridium wires. Vagal C fibers with chemosensitive endings have a sparse irregular discharge which is not associated with cardiac or respiratory cycles. […]
ATP (3 umole kg^−1) and capsaicin (10 ug kg^−1) were administered as a rapid bolus into the right atrium (5 ml test solution+5 ml physiological saline flush). α,βmATP and β,γmATP were given as one low dose only (0.75 umol kg^−1) to avoid systemic side effects. […] To exclude involvement of baroreceptors in the recorded neural activity, the latter was monitored before and after a bolus of nitroglycerine (1 mg; intravenous). […]

The subject of assay [4] is pulmonary RAR-containing afferent nerve fiber. The experiment in a line: Vagal activation experiments in dogs: action potentials in RAR-containing fibers. The settings on record: anesthetized dog, rapid bolus; ATP 6 μmol/kg, capsaicin 10 ug kg−1, analogs 0.75 umol kg−1. As to the method: as §3
Extracellular neural action potentials were recorded using a custom-made bipolar electrode that contained two platinum-iridium wires (1.25 cm×0.0125 cm) connected to a high-impedence first-stage differential amplifier (model AC8331, CW, Inc., Ardmore, Pa.) via a shielded cable. The output of the first-stage amplifier was fed into a second-stage differential amplifier (model BMA-831/C, CWE, Inc.). Isolated fibers were laid on the pair of platinum-iridium wires. Vagal C fibers with chemosensitive endings have a sparse irregular discharge which is not associated with cardiac or respiratory cycles. Confirmation of fiber type was obtained by: first monitoring the response to capsaicin (10 microg kg^−1, intra-right atrial bolus); second, monitoring the response to mechanical stimulation of the lungs using gentle probing with forceps as well as inflation of the lungs to 2-3 times the tidal volume; and third, determining the speed of conduction using a stimulating electrode positioned distal to the initial recording site. Nerve fibers with RAR on their pulmonary endings, spontaneously fire a brief (i.e., short lasting) volley of action potentials associated with peak tracheal pressure during each respiratory cycle.
[…] Volume controls consisted of either 5 ml+5 ml or 1 ml+3 ml physiological saline. All injections were performed in the same mode by the same person. To exclude involvement of baroreceptors in the recorded neural activity, the latter was monitored before and after a bolus of nitroglycerine (1 mg; intravenous).
The procedure described in Example 1 was used to measure action potentials in dog pulmonary fibers with RAR on their terminals following administration of various agents. RAR activation generated a brief volley of action potentials associated with each respiratory cycle that was seen before as well as after administration of ATP (FIG. 7). […] Thus ATP modified the activity of the RAR-containing fiber manifested in their transient loss of the rapid adaptability characteristic.

As to `Nc1ncnc2c1ncn2[C@@H]1O[C@H](COP(=O)(O)O)[C@@H](O)[C@H]1O` [AMP, adenosine 5′-monophosphate], the “subjects who coughed after challenge” value in assay [1] was 48%. For the same compound, the “subjects who had sputum after challenge” value in assay [1] was 10%. Moreover, the “subjects who had throat irritation after challenge” value in assay [1] was found to be 53%. The compound also came in with a patients with bronchoconstriction in assay [2] (19 smoking subjects (seven healthy smokers, seven smokers at risk, five COPD)) of 21%. In addition, the PD20 geometric mean in assay [2] (COPD (n = 7)) is 210.6 µmol/mL; in assay [2] (asthma (n = 10)), 113.5 µmol/mL; in assay [2] (healthy smokers (n = 7)), 74.6 µmol/mL; in assay [2] (non-smokers (n = 10)), over 1152 µmol/mL; in assay [2] (smokers at risk (n = 7)), 576.0 µmol/mL. Moreover, the “patients who responded to challenge” value is reported as 33% in assay [2] (COPD patients) and 90% in assay [2] (patients with asthma). For the same compound, in assay [2] (all subjects who had airway responsiveness), the “PD20 geometric mean (range)” value was 82.9 (0.9-576.0) umol/ml. Further, the response to challenge entry in assay [2] (healthy non-smokers, no change in FEV1 or reduction of less than 20%) is listed as “negative”. Also, the “subjects who responded to challenge” value in assay [2] (healthy smokers) and in assay [2] (smokers at risk) was 14% throughout. Also, the PD20 in assay [2] (COPD (n = 7)) is 0.9 μmol/ml and >1152 μmol/ml (4×) and 72.0 μmol/ml and 168.4 μmol/ml; in assay [2] (asthma (n = 10)) it was 576.0 µmol/mL and 3.46 µmol/mL and 54.7 µmol/mL and 559.3 µmol/mL and 461.7 µmol/mL and 176.0 µmol/mL and >1152 µmol/mL and 15.8 µmol/mL and 556.4 µmol/mL and 72.0 µmol/mL; in assay [2] (healthy smokers (n = 7)) it was >1152 μmol/ml (6×) and 74.6 μmol/ml; in assay [2] (non-smokers (n = 10), provocative dose causing 20% decrease in FEV1) it was over 1152 µmol/mL; in assay [2] (smokers at risk (n = 7)) it was >1152 μmol/ml (6×) and 576.0 μmol/ml. Further, the “subjects responsive to challenge” value in assay [2] (of the 40 subjects in the study) was 32.5%. For the same compound, the “ΔFEV1 (decrease in FEV1 as percentage of baseline FEV1)” value in assay [2] (patients with asthma) worked out at 22%. Besides, the “ΔBorg (change in Borg score before and after challenge)” value in assay [3] (COPD) was 0.6; in assay [3] (patients with asthma) it was 2.3. The “Borg score after challenge (at PD20)” value in assay [3] (COPD patients) stood at 0.8; in assay [3] (patients with asthma), 2.5.

`COc1cc(CNC(=O)CCCC/C=C/C(C)C)ccc1O` [capsaicin]: the “effect on action potentials of C fibers” value with vagal C fiber is “stimulated only the former”. Further, in assay [4], the “effect on action potentials of RAR-containing fibers” value is on record as “did not alter the firing pattern”.

Turning to `Nc1ncnc2c1ncn2[C@@H]1O[C@H](COP(=O)(O)OP(=O)(O)CP(=O)(O)O)[C@@H](O)[C@H]1O` [β,γmATP, β,γ-methylene ATP], the “effect on action potentials of C fibers” value in the assay on vagal C fiber was “acted similarly to ATP”. Moreover, the “effect on action potentials of RAR-containing fibers” value in assay [4] was “acted similarly to ATP”.
